Experiment [1] deals with intraluminal occlusion of the middle cerebral artery (MCA). As to the kind of experiment: Grip test after MCA occlusion. The class given is in vivo, Sprague-Dawley rats. Particulars: 7 and 14 days after ischemia, 12 nmol/kg i.v. before MCA occlusion, n=8/group.
For experiment [2], the system named is intracerebral hemorrhage and traumatic brain injury. The note with it: intravenous administration; cited from earlier work.

Turning to human BNP [hBNP], in experiment [1], the “grip test vs control” value is “no differences were observed”.

As to nesiritide, in experiment [2], the cerebral blood flow entry was “improved the cerebral blood flow”; the functional outcome was “better functional outcome”; the “inflammation and brain injury” value was “reduced the inflammation and brain injury”.

These data come from publication PMC5779043 (Journal of the American Heart Association: Cardiovascular …, 2017).
